Experiment [1] concerns NCI-H2591 (Mesothelioma). As to the kind of experiment: Bliss excess, mean over the matrix (fraction); higher = more synergy. In a few lines: (§1)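 Bliss excess equals the observed combination effect minus the expected value EA + EB − EA·EB, where EA and EB are the effects of each agent alone. Combination Emax is the second-highest inhibition within the matrix. Inhibition was scaled from CellTiter-Glo 2.0 luminescence, with 0 set by vehicle wells and 1 by blank wells, after 72 hours of two-drug dosing of cells plated in 1536-well plates.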

Experiment [2] concerns U-2-OS (Osteosarcoma). The description is as above. In short, it runs like this:
as §1

Experiment [3] has as its system CCK-81 (Colorectal Carcinoma). The description is as above. In a few lines: as §1
The test system of experiment [4] is COLO-320-HSR (Colorectal Carcinoma). The description is as above. In short, it runs like this:
as §1

For experiment [5], the system named is LN-405 (Glioblastoma). The experiment is described as above. In a few lines:
as §1

For experiment [6], the system named is KARPAS-422 (B-Cell Non-Hodgkin's Lymphoma). The experiment is described as above. In short, it runs like this:
as §1

The subject of experiment [7] is IGR-37 (Melanoma). Described as above. In a few lines:
as §1

For experiment [8], the system named is ONS-76 (Other Solid Carcinomas). The experiment is described as above. In a few lines:
as §1

Experiment [9] concerns BICR22 (Oral Cavity Carcinoma). The description is as above. In short, it runs like this:
as §1

Experiment [10] has as its system NCI-H1581 (Non-Small Cell Lung Carcinoma). The experiment is described as above. In short, it runs like this:
as §1

The test system of experiment [11] is FU97 (Gastric Carcinoma). The experiment is described as above. In short, it runs like this:
as §1

Experiment [12] deals with NCI-H2066 (Squamous Cell Lung Carcinoma). The description is as above. In a few lines: as §1
Experiment [13] relates to NCI-H64 (Small Cell Lung Carcinoma). Described as above. In a few lines: as §1
Experiment [14] concerns NY (Osteosarcoma). The description is as above. In short, it runs like this:
as §1

Experiment [15] concerns VCaP (Prostate Carcinoma). The experiment is described as above. In a few lines: as §1
Experiment [16] has as its system PANC-10-05 (Pancreatic Carcinoma). The description is as above. In a few lines: as §1
Experiment [17] relates to HCC1954 (Breast Carcinoma). The description is as above. In short, it runs like this: as §1
In experiment [18] the test system is NCI-H1666 (Lung Adenocarcinoma). Described as above. In short, it runs like this:
as §1

In experiment [19] the test system is TT (Thyroid Gland Carcinoma). Described as above. In short, it runs like this:
as §1

Experiment [20] has as its system IGR-37 (Melanoma). Put plainly: combination Emax (second highest fraction inhibited in the dose matrix, 72 h); higher = more inhibition; extreme values may be limits of the assay. In a few lines: as §1

This note sets out measurements from the supplement of paper PMC11061612.

Molecules are shown by their SMILES.

For the compound `CS(=O)(=O)CCNCc1ccc(-c2ccc3ncnc(Nc4ccc(OCc5cccc(F)c5)c(Cl)c4)c3c2)o1` [Lapatinib] + NC1(c2ccc(-c3nc4ccn5c(=O)[nH]nc5c4cc3-c3ccccc3)cc2)CCC1 [MK-2206] (first compound max 10 µM, 7x7, partner max 10 µM), the Bliss excess in experiment [1] is -0.0408; in experiment [2], -0.029; in experiment [3], 0.0908; in experiment [4], 0.0102; in [5], -0.0277; in experiment [6] it was -0.0122. The Bliss excess in [7] was 0.0428; in experiment [8], 0.0048; in [9] it was 0.0346; in experiment [10], -0.0046; in experiment [11], 0.0294; in experiment [12], 0.0521. For the same compound, the Bliss excess is 0.022 in experiment [13]; 0.0087 in experiment [14]; -0.0421 in experiment [15]; -0.0218 in experiment [16]; 0.0952 in [17]; -0.0093 in [18]. In [19], the Bliss excess was -0.0043. For the same compound, the “combination Emax” value in experiment [20] is 0.901.
